Tests used:
[1] = target: T1, p99 AmpC β-lactamase (Class C) (Enterobacter cloacae, UniProt P05364); assay: β-Lactamase inhibition, p99 AmpC; type: biochemical
T1 construct: made in house; host or cells: E. coli BL21(DE3)
Method: (§1) For SHV-5, Kpc-2, p99AmpC and OXA-1 β-lactamases, E. coli BL21(DE3) bacterial cells carrying expression plasmids (expressed as native untagged proteins) for the individual β-lactamases were grown in 1 L of Superbroth (Teknova Inc. Hollister, Calif.) supplemented with 100 μg/ml kanamycin selection and 1×5052 (0.5% glycerol, 0.05% glucose and 0.2% α-lactose) at 35° C. for 18-20 hours. Cells were harvested by centrifugation (4,000×g, 4° C., 20 min), resuspended in 50 ml of 10 mM HEPES pH 7.5 ( 1/20 of the initial volume). The cells were lysed by sonication (5 pulses of 45 seconds) at 45 W on ice. The lysates were clarified by centrifugation at 10,000×g for 40 minutes at 4° C. Samples were diluted 5-fold in 50 mM sodium acetate pH 5.0, stored overnight at 4° C., after which they were centrifuged at 10,000×g for 30 minutes to clarify, and filtered through 0.45 μm filters. The samples were loaded onto a 5 ml Capto S sepharose cation exchange column (GE Healthcare) pre-equilibrated with 50 mM sodium acetate pH 5.0. The column was washed with 5 column volumes of 50 mM sodium acetate pH 5.0 to wash out unbound protein and a linear gradient of NaCl (0 to 500 mM) was used to elute the protein (over 16 CV) from the column. Fractions were assayed for β-lactamase activity using Centa (Calbiochem, Gibbstown, N.J.) or Nitrocefin (EMD Millipore chemicals, Darmstadt, Germany) as a reporter β-lactamase substrate for activity in the isolated fractions. Active fractions were pooled, concentrated and further purified by gel filtration chromatography on a Superdex 75 prep grade gel filtration column (GE Healthcare, Piscataway, N.J.) pre-equilibrated in 50 mM Hepes pH 7.5, 150 mM NaCl. Active fractions were pooled concentrated, quantitated by BCA protein determination (Thermo Scientific, Rockford, Ill.), dialyzed into PBS and frozen at −80° C. in 20% glycerol until use.
(§2) An equal volume of diluted enzyme stock was added, and the plates were incubated at 37° C. for 15 min. Nitrocefin was used as substrate for p99 AmpC, VIM-2 and OXA-1 and dispensed into each well at a final concentration of 100 μM. Absorbance at 486 nm was immediately monitored for 10 min using a Biotek Powerwave XS2 microplate spectrophotometer using the GEN5 software package (Biotek Instruments, Winooski Vt.). In an analogous fashion, imipenem was used as substrate for Kpc-2 and Cefotaxime was used for SHV-5, while changes in absorbance upon hydrolysis of the β-lactam ring were monitored at 300 nm and 260 nm respectively in UV-transparent 96-well microtiter assay plates. Maximum rates of hydrolysis were compared to those in control wells (without inhibitors), and percentages of enzyme inhibition were calculated for each concentration of inhibitor. The concentration of inhibitor needed to reduce the initial rate of hydrolysis of substrate by 50% (IC50) was calculated as the residual activity of β-lactamase at 486 nm using GraFit version 7 kinetics software package (Erithacus Software, Surrey, UK).
(§3) Using the methodology described above, examples of the current invention were evaluated for their ability to inhibit β-lactamase enzymes from all four Ambler classifications (A through D). […] NT=Not tested.

[2] = target: T2, VIM-2 metallo-β-lactamase (Class B) (Pseudomonas aeruginosa, UniProt Q9K2N0); assay: β-Lactamase inhibition, VIM-2; type: biochemical; details: nitrocefin 100 μM, 486 nm; 15 min preincubation at 37° C., PBS pH 7.4
T2 construct: made in house; host or cells: E. coli BL21(DE3)
Method: For Vim-2 metallo β-lactamase, the procedure was identical with the following exceptions, first the protein was not pH adjusted to pH 5 with 50 mM sodium acetate, second, the chromatography step was changed to a 5 ml Q sepharose anion exchange column pre-equilibrated with 50 mM Hepes pH 7.5, and elution of the protein was achieved by a linear gradient of NaCl (0-600 mM). Finally, the VIM-2 purification required a second run (3rd step) on the Q sepharose anion exchange column to achieve acceptable purity (>90%).
as §2, §3

[3] = system: E. coli ESBL4 expressing CTX-M-15; assay: Broth microdilution MIC, E. coli ESBL4 CTX-M-15; type: cell-based; details: fixed 4 μg/mL ceftazidime; CAMHB, 16-20 hours at 37° C.
Source text: (§4) To determine the ability of test compounds to potentiate the inhibition of the growth of bacterial strains that produce beta-lactamase enzymes, classic cell based broth microdilution MIC assays were employed. Six bacteria strains producing beta-lactamase enzymes were used: E. coli expressing the Class A Extended Spectrum Beta-Lactamase (ESBL) CTX-M-15, E. cloacae expressing the Class C P99, K. pneumoniae expressing the Class A carbapenemase KPC-3, P. aeruginosa expressing the Class B carbapenemase VIM-2, K. pneumoniae expressing the class A carbapenemase KPC-2 and the class B carbapenemase VIM-4, and S. aureus producing the Class A penicillinase PC-1. The assay was conducted in Cation Adjusted Mueller Hinton Broth (CAMHB, BD #212322, BD Diagnostic Systems, Sparks, Md.). Bacteria strains were grown for 3-5 hours in CAMBH broth. Test compounds (Examples 1-30) were added to a microtiter plate in 2-fold serial dilutions in CAMHB in a final concentration range of 32 μg/mL to 0.25 μg/ml. An overlay of CAMHB containing a Beta-lactam was added to the compounds at a final static concentration of 4 μg/ml. […] In addition to the titration of test compounds the MICs of a panel of control beta-lactams is also tested to ensure the strains are behaving consistently from test to test. Once the test compound and antibiotics are added the plates can be inoculated according to CLSI broth microdilution method. After inoculation the plates are incubated for 16-20 hours at 37° C. then the Minimal Inhibitory Concentration (MIC) of the test compound is determined visually.
(§5) Using the methodology described above, examples of the current invention were evaluated for their ability to inhibit the growth of β-lactamase-producing bacteria in the presence of a β-lactam antibiotic.
(§6) Using the methodology described above in EXAMPLE III, exemplary compounds for Formula I or Formula Ia were evaluated for their ability to inhibit the growth of β-lactamase producing bacteria in the presence of a β-lactam antibiotic.

[4] = system: S. aureus MSSA-7 producing penicillinase PC-1; assay: Broth microdilution MIC, S. aureus MSSA-7 PC-1; type: cell-based; details: fixed 4 μg/mL piperacillin; CAMHB, 16-20 hours at 37° C.
Source text: as §4, §5, §6

[5] = target: T3, KPC-2 β-lactamase (Class A carbapenemase) (Klebsiella pneumoniae, UniProt Q9F663); assay: β-Lactamase inhibition, KPC-2; type: biochemical; details: imipenem substrate, 300 nm; 15 min preincubation at 37° C., PBS pH 7.4
T3 construct: made in house; host or cells: E. coli BL21(DE3)
Method: as §1, §2, §3

[6] = system: E. cloacae 144200 expressing Class C P99 AmpC; assay: Broth microdilution MIC, E. cloacae 144200 p99 AmpC; type: cell-based; details: fixed 4 μg/mL ceftazidime; CAMHB, 16-20 hours at 37° C.
Source text: as §4, §5, §6

[7] = system: K. pneumoniae A-1797 expressing KPC-2 and VIM-4; assay: Broth microdilution MIC, K. pneumoniae A-1797 KPC-2/VIM-4; type: cell-based; details: fixed 4 μg/mL meropenem; CAMHB, 16-20 hours at 37° C.
Source text: as §4, §5, §6

[8] = target: T4, SHV-5 β-lactamase (Class A ESBL) (Klebsiella pneumoniae, UniProt P0A3M1); assay: β-Lactamase inhibition, SHV-5; type: biochemical
T4 construct: made in house; host or cells: E. coli BL21(DE3)
Method: as §1, §2, §3

[9] = system: P. aeruginosa Ps296 expressing VIM-2; assay: Broth microdilution MIC, P. aeruginosa Ps296 VIM-2; type: cell-based; details: fixed 4 μg/mL meropenem; CAMHB, 16-20 hours at 37° C.
Source text: as §4, §5, §6

[10] = target: T5, OXA-1 β-lactamase (Class D oxacillinase) (Escherichia coli, UniProt P13661); assay: β-Lactamase inhibition, OXA-1; type: biochemical; details: nitrocefin 100 μM, 486 nm; 15 min preincubation at 37° C., PBS pH 7.4
T5 construct: made in house; host or cells: E. coli BL21(DE3)
Method: as §1, §2, §3

[11] = system: K. pneumoniae 156319 expressing KPC-3; assay: Broth microdilution MIC, K. pneumoniae 156319 KPC-3; type: cell-based; details: fixed 4 μg/mL meropenem; CAMHB, 16-20 hours at 37° C.
Source text: as §4, §5, §6

T4 sequence (P0A3M1 22-286): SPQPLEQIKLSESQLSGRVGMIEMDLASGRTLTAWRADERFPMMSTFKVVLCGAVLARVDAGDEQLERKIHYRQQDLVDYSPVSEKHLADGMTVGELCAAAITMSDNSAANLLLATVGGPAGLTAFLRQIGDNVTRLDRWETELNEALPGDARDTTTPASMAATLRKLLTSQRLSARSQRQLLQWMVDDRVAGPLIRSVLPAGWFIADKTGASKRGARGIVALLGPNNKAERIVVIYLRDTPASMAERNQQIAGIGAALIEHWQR
T3 sequence (Q9F663 25-293, looked up): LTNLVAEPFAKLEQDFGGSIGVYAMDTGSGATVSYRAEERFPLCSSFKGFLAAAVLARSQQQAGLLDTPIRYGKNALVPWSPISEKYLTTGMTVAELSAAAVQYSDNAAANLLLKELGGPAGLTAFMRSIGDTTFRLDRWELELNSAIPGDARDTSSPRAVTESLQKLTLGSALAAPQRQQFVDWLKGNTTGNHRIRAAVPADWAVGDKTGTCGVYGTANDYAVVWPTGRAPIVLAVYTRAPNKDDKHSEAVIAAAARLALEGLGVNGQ
T5 sequence (P13661 26-276): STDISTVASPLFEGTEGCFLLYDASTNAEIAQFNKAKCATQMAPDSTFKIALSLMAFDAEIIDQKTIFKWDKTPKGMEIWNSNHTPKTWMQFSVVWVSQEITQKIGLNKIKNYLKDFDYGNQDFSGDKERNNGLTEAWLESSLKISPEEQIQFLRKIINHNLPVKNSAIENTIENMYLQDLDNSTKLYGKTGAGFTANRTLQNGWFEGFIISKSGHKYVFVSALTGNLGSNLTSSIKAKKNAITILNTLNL
T1 sequence (P05364 21-381): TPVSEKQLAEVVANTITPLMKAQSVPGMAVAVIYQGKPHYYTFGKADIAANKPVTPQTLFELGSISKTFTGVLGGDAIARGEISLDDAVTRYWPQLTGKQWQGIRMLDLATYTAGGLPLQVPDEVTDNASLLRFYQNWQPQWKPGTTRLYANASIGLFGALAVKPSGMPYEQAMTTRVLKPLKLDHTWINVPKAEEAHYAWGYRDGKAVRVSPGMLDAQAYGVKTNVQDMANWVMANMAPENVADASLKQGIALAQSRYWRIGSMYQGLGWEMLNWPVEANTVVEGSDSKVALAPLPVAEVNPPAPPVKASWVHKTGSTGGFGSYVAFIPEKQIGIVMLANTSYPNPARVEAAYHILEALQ

## NC1CCN(CC(=O)N[C@H]2Cc3cccc(C(=O)O)c3OB2O)CC1 [Example 1, 3-[2-(4-Amino-piperidin-1-yl)-acetylamino]-2-hydroxy-3,4-dihydro-2H-benzo[e][1,2]oxaborinine-8-carboxylic acid]
[1]
  IC50: < 100 nM
[2]
  IC50: 10000 to 100000 nM
[3]
  MIC of example compound in presence of fixed β-lactam: Fixed CAZ, E. coli ESBL4 CTX-M-15: C (the MIC in the presence of <4 μg/mL of a β-lactamase inhibitor)
[4]
  MIC of example compound in presence of fixed β-lactam: Fixed Pip, S. aureus MSSA-7 PC-1: C (the MIC in the presence of <4 μg/mL of a β-lactamase inhibitor)
[5]
  IC50: < 100 nM
[6]
  MIC of example compound in presence of fixed β-lactam: Fixed CAZ, E. cl. 144200 p99 AmpC: B (the MIC in the presence of between 8 and 32 μg/mL of a β-lactamase inhibitor)
[7]
  MIC of example compound in presence of fixed β-lactam: Fixed Mero, K. P. A-1797 KPC-2 VIM-4: A (an MIC of the fixed β-lactam antibiotic in the presence of >32 μg/mL of a β-lactamase inhibitor)
[8]
  IC50: < 100 nM
[9]
  MIC of example compound in presence of fixed β-lactam: Fixed Mero, P. aerug. Ps296 VIM-2: A (an MIC of the fixed β-lactam antibiotic in the presence of >32 μg/mL of a β-lactamase inhibitor)
[10]
  IC50: 100 to 1000 nM

## O=C(CN1CCN(c2ccccn2)CC1)N[C@H]1Cc2cccc(C(=O)O)c2OB1O [Example 2, 2-Hydroxy-3-[2-(4-pyridin-2-yl-piperazin-1-yl)-acetylamino]-3,4-dihydro-2H-benzo[e][1,2]oxaborinine-8-carboxylic acid]
[11]
  MIC of example compound in presence of fixed β-lactam: Fixed Mero, K. P. 156319 KPC-3: B (the MIC in the presence of between 8 and 32 μg/mL of a β-lactamase inhibitor)
[1]
  IC50: < 100 nM
[2]
  IC50: 1000 to 10000 nM
[3]
  MIC of example compound in presence of fixed β-lactam: Fixed CAZ, E. coli ESBL4 CTX-M-15: C (the MIC in the presence of <4 μg/mL of a β-lactamase inhibitor)
[4]
  MIC of example compound in presence of fixed β-lactam: Fixed Pip, S. aureus MSSA-7 PC-1: C (the MIC in the presence of <4 μg/mL of a β-lactamase inhibitor)
[5]
  IC50: 100 to 1000 nM
[6]
  MIC of example compound in presence of fixed β-lactam: Fixed CAZ, E. cl. 144200 p99 AmpC: C (the MIC in the presence of <4 μg/mL of a β-lactamase inhibitor)
[7]
  MIC of example compound in presence of fixed β-lactam: Fixed Mero, K. P. A-1797 KPC-2 VIM-4: A (an MIC of the fixed β-lactam antibiotic in the presence of >32 μg/mL of a β-lactamase inhibitor)
[8]
  IC50: < 100 nM
[9]
  MIC of example compound in presence of fixed β-lactam: Fixed Mero, P. aerug. Ps296 VIM-2: A (an MIC of the fixed β-lactam antibiotic in the presence of >32 μg/mL of a β-lactamase inhibitor)
[10]
  IC50: 100 to 1000 nM

## CN(C)CCN1CCN(CC(=O)N[C@H]2Cc3cccc(C(=O)O)c3OB2O)CC1 [Example 3, 3-{2-[4-(2-Dimethylamino-ethyl)-piperazin-1-yl]-acetylamino}-2-hydroxy-3,4-dihydro-2H-benzo[e][1,2]oxaborinine-8-carboxylic acid]
[11]
  MIC of example compound in presence of fixed β-lactam: Fixed Mero, K. P. 156319 KPC-3: C (the MIC in the presence of <4 μg/mL of a β-lactamase inhibitor)
[1]
  IC50: < 100 nM
[2]
  IC50: 1000 to 10000 nM
[3]
  MIC of example compound in presence of fixed β-lactam: Fixed CAZ, E. coli ESBL4 CTX-M-15: C (the MIC in the presence of <4 μg/mL of a β-lactamase inhibitor)
[4]
  MIC of example compound in presence of fixed β-lactam: Fixed Pip, S. aureus MSSA-7 PC-1: C (the MIC in the presence of <4 μg/mL of a β-lactamase inhibitor)
[5]
  IC50: < 100 nM
[6]
  MIC of example compound in presence of fixed β-lactam: Fixed CAZ, E. cl. 144200 p99 AmpC: C (the MIC in the presence of <4 μg/mL of a β-lactamase inhibitor)
[7]
  MIC of example compound in presence of fixed β-lactam: Fixed Mero, K. P. A-1797 KPC-2 VIM-4: B (the MIC in the presence of between 8 and 32 μg/mL of a β-lactamase inhibitor)
[8]
  IC50: < 100 nM
[9]
  MIC of example compound in presence of fixed β-lactam: Fixed Mero, P. aerug. Ps296 VIM-2: C (the MIC in the presence of <4 μg/mL of a β-lactamase inhibitor)
[10]
  IC50: 100 to 1000 nM

## O=C(CN1CCNCC1)N[C@H]1Cc2cccc(C(=O)O)c2OB1O [Example 4, 2-Hydroxy-3-(2-piperazin-1-yl-acetylamino)-3,4-dihydro-2H-benzo[e][1,2]oxaborinine-8-carboxylic acid]
[11]
  MIC of example compound in presence of fixed β-lactam: Fixed Mero, K. P. 156319 KPC-3: C (the MIC in the presence of <4 μg/mL of a β-lactamase inhibitor)
[1]
  IC50: < 100 nM
[2]
  IC50: 1000 to 10000 nM
[3]
  MIC of example compound in presence of fixed β-lactam: Fixed CAZ, E. coli ESBL4 CTX-M-15: C (the MIC in the presence of <4 μg/mL of a β-lactamase inhibitor)
[4]
  MIC of example compound in presence of fixed β-lactam: Fixed Pip, S. aureus MSSA-7 PC-1: C (the MIC in the presence of <4 μg/mL of a β-lactamase inhibitor)
[5]
  IC50: < 100 nM
[6]
  MIC of example compound in presence of fixed β-lactam: Fixed CAZ, E. cl. 144200 p99 AmpC: C (the MIC in the presence of <4 μg/mL of a β-lactamase inhibitor)
[7]
  MIC of example compound in presence of fixed β-lactam: Fixed Mero, K. P. A-1797 KPC-2 VIM-4: B (the MIC in the presence of between 8 and 32 μg/mL of a β-lactamase inhibitor)
[8]
  IC50: < 100 nM
[9]
  MIC of example compound in presence of fixed β-lactam: Fixed Mero, P. aerug. Ps296 VIM-2: B (the MIC in the presence of between 8 and 32 μg/mL of a β-lactamase inhibitor)
[10]
  IC50: 100 to 1000 nM
